Results on four compounds are retold here after US6049003A, “Azoamidine compound” (Wako Pure Chemical Industries, Ltd., priority 1998, dated 2000).

Data set [1] can be described thus: solution polymerization of acrylamide with the azoamidine compound as initiator (Table 1). To be noted: acrylamide in water, 50° C. The protocol:
Acrylamide (20 g) was dissolved in 380 g of distilled water and 0.01 g of the azoamidine compound obtained in Example 1 was added thereto as a polymerization initiator. The reaction solution was heated at 50° C. with stirring under nitrogen gas atmosphere to cause polymerization reaction. After the polymerization reaction was started, samplings of the reaction solution were conducted at predetermined intervals, and the samples were precipitated by methanol to recover the produced polymer, followed by drying. The polymerization rates at each sampling time were measured.
The same polymerization reaction as Example 4 was conducted except for using azoamidine compounds, in which an α-amino acid residue as introduced, of 2,2'-azobis(N-carboxymethyl-2-methylpropionamidine) [drawing 10] or 2,2'-azobis[N-(1-carboxyethyl)-2-methylpropionamidine] [drawing 11] as a polymerization initiator.

A short description of data set [2]: 10 hours half life temperature. In kind it is physicochemical.
Data set [3] can be described thus: decomposition rate constant at 50° C. (Table 1). In kind it is physicochemical.
Data set [4] in a line: comparison of solubility in various kinds of solvents (Table 3). In kind it is physicochemical.
Data set [5] in a line: emulsion polymerization of styrene with the azoamidine compound as initiator (Table 2). To be noted: for Polymerization Rate(%): sodium dodecyl sulfate. The protocol: Distilled water (400 g), sodium dodecyl sulfate (4 g) and azoamidine compound (0.5 g) obtained in Example 1 were mixed with one another and were stirred to give a solution, and 200 g of styrene monomer was added thereto, followed by stirring to make emulsion. The resultant was subjected to polymerization reaction at 50° C. with stirring under nitrogen gas atmosphere. After the polymerization reaction was started, samplings of the reaction solution were conducted at predetermined intervals, and the samples were precipitated by methanol to recover the produced polymer, followed by drying. The polymerization rates at each sampling time were measured.
The same emulsion polymerization as Example 5 was conducted except for using a typical known azoamidine compound, of 2,2'-azobis(2-methylpropionamidine) dihydrochloride as a polymerization initiator.

Where [6] appears, read: 50° C., polymerization time 1 H.
Where [7] appears, read: 50° C., polymerization time 1.5 H.
The mark [8] stands for this setting: 50° C., polymerization time 2 H.
Where [9] appears, read: 50° C., polymerization time 3 H.
The mark [10] stands for this setting: 50° C., polymerization time 4 H.
[11] abbreviates: 50° C., polymerization time 5 H.
Setting [12] is: 50° C., polymerization time 6 H.

For `CC(C)(N=NC(C)(C)C(=N)NCCC(=O)O)C(=N)NCCC(=O)O.O.O` [Example 1, 2,2'-azobis[N-(2-carboxyethyl)-2-methylpropionamidine] dihydrate], the “Polymerization Rate(%)” value worked out at 6.7% in data set [1] (polymerization time 1 H); 22.3% in data set [1] (polymerization time 1.5 H); 34.2% in data set [1] (polymerization time 2 H); 53.3% in data set [1] (polymerization time 3 H); 64.8% in data set [1] (polymerization time 4 H); 70.6% in data set [1] (polymerization time 5 H). Besides, the “Polymerization Rate(%)” value in data set [1] (polymerization time 6 H) is on record as 74.7%; in data set [5] (setting [6]) it was 25.2%; in data set [5] (setting [7]) it was 51.0%; in data set [5] (setting [8]) it was 74.3%; in data set [5] (setting [9]), 89.2%; in data set [5] (setting [10]), 93.5%. Also, the entries for the “Polymerization Rate(%)” value in data set [5] (setting [11]) and in data set [5] (setting [12]) were 94.4% and 95.4%, respectively. Further, in data set [2], the “10 hours half life temperature” value is 57 °C. Further, the “Decomposition Rate Constant at 50° C.” value in data set [3] came to 7.3e-06 s⁻¹. The “solubility in Methanol” value in data set [4] (Methanol) stood at 36.9%. The “solubility in Water” value in data set [4] worked out at 10.0%.

Consider `CC(C)(N=NC(C)(C)C(=N)NCC(=O)O)C(=N)NCC(=O)O` [Reference Example 1, 2,2'-azobis(N-carboxymethyl-2-methylpropionamidine)], for which the “Polymerization Rate(%)” value is reported as 15.8% in data set [1] (polymerization time 1 H); 21.2% in data set [1] (polymerization time 1.5 H); 25.0% in data set [1] (polymerization time 2 H); 32.5% in data set [1] (polymerization time 3 H); 37.2% in data set [1] (polymerization time 4 H); 38.3% in data set [1] (polymerization time 5 H). For the same compound, in data set [1] (polymerization time 6 H), the “Polymerization Rate(%)” value is 41.2%. Also, in data set [4] (Methanol), the “solubility in Methanol (in words)” value is on record as “insoluble”. Further, the “solubility in Water” value in data set [4] was found to be 0.4%.

As for `CC(NC(=N)C(C)(C)N=NC(C)(C)C(=N)NC(C)C(=O)O)C(=O)O` (stereo not drawn) [Reference Example 2, 2,2'-azobis[N-(1-carboxyethyl)-2-methylpropionamidine]], the “Polymerization Rate(%)” value turned out to be 19.0% in data set [1] (polymerization time 1 H); 24.2% in data set [1] (polymerization time 1.5 H); 28.8% in data set [1] (polymerization time 2 H); 33.8% in data set [1] (polymerization time 3 H); 38.5% in data set [1] (polymerization time 4 H); 46.3% in data set [1] (polymerization time 5 H). In data set [1] (polymerization time 6 H), the “Polymerization Rate(%)” value came to 47.1%. Moreover, in data set [4] (Methanol), the “solubility in Methanol (in words)” value is listed as “insoluble”. The “solubility in Water” value in data set [4] came to 0.8%.

With `CC(C)(N=NC(C)(C)C(=N)N)C(=N)N.Cl.Cl` [Reference Example 3, 2,2'-azobis(2-methylpropionamidine) dihydrochloride], the “dead end phenomenon in emulsion polymerization” value in data set [5] (50° C.) is reported as “dead end phenomenon was observed”. Also, the “polymerization rate at 6 hour polymerization and later (in words)” value in data set [5] (6 hours and later) is on record as “reduced”. Also, the “Polymerization Rate(%)” value in data set [5] (setting [6]) is on record as 32.0%; in data set [5] (setting [7]), 37.1%; in data set [5] (setting [8]), 69.9%; in data set [5] (setting [9]), 88.4%; in data set [5] (setting [10]) it was 91.4%; in data set [5] (setting [11]), 93.1%. Moreover, the “Polymerization Rate(%)” value in data set [5] (setting [12]) is 92.2%.
